Assay results: ChEMBL document CHEMBL4359837, “Discovery of 2-(4-Chloro-3-(trifluoromethyl)phenyl)-N-(4-((6,7-dimethoxyquinolin-4-yl)oxy)phenyl)acetamide (CHMFL-KIT-64) as a Novel Orally Available Potent Inhibitor against Broad-Spectrum Mutants of c-KIT Kinase for Gastrointestinal Stromal Tumors” (J Med Chem, 2019)
Active and inactive are the calls of the source. No cut-off for these calls is given here.

Assays:
[1] = tested on: Mast/stem cell growth factor receptor Kit (Homo sapiens), P10721 [UNDEFINED MUTATION]; conditions: 0.1 uM
Chain of Mast/stem cell growth factor receptor Kit (Homo sapiens), P10721 [UNDEFINED MUTATION] (P10721 whole entry, looked up, stated change not applied): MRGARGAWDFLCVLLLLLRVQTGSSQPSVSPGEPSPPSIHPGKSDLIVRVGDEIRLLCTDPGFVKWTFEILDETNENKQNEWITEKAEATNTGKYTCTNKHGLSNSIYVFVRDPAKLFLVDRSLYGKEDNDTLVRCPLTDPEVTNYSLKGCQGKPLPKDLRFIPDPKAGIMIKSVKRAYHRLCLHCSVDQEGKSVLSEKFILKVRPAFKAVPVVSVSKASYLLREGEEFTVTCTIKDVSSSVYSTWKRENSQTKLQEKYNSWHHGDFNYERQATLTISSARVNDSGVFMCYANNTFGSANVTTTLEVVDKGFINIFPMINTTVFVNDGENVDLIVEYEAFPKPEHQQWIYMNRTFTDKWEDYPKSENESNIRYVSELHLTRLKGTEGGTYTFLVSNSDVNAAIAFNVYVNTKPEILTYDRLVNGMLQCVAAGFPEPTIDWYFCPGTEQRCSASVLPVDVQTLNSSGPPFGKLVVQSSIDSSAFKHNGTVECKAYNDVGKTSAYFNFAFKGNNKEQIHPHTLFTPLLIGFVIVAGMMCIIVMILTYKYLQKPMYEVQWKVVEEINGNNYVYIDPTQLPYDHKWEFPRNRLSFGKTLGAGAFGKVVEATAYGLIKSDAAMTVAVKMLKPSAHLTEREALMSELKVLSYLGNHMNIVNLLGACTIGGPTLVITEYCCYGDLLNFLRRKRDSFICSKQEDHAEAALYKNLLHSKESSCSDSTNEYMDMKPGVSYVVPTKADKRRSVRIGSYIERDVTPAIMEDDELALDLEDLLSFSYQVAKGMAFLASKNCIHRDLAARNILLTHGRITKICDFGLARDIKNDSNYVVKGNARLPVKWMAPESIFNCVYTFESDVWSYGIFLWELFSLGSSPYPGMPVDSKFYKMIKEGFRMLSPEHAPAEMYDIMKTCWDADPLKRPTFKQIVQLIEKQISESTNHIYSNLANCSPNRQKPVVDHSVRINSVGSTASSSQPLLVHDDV
Description: Inhibition of c-KIT 560 to 578 deletion/T670I mutant in human GIST5R assessed as reduction in AKT phosphorylation at T308 residue at 0.1 uM measured after 2 hrs by Western blot analysis

[2] = tested on: Mast/stem cell growth factor receptor Kit (Homo sapiens), P10721 [UNDEFINED MUTATION]; conditions: GISTT1, 0.1 uM
Description: Inhibition of c-KIT 560 to 578 deletion mutant in human GISTT1 cells assessed as reduction in ERK phosphorylation at T202 residue at 0.1 uM measured after 2 hrs by Western blot analysis

[3] = tested on: Mast/stem cell growth factor receptor Kit (Homo sapiens), P10721 [UNDEFINED MUTATION]; conditions: GISTT1, 0.1 uM; remark: listed apart in the source
Description: Inhibition of c-KIT 560 to 578 deletion mutant in human GISTT1 cells assessed as reduction in AKT phosphorylation at S473 residue at 0.1 uM measured after 2 hrs by Western blot analysis

[4] = tested on: Mast/stem cell growth factor receptor Kit (Homo sapiens), P10721 [UNDEFINED MUTATION]; conditions: GISTT1, 0.1 uM; remark: listed apart in the source
Description: Inhibition of c-KIT 560 to 578 deletion mutant in human GISTT1 cells assessed as reduction in c-KIT autophosphorylation at Y719 residue at 0.1 uM measured after 2 hrs by Western blot analysis

[5] = tested on: Mast/stem cell growth factor receptor Kit (Homo sapiens), P10721 [UNDEFINED MUTATION]; conditions: GISTT1, 0.1 uM; remark: listed apart in the source
Description: Inhibition of c-KIT 560 to 578 deletion/T670I mutant in human GISTT1 cells assessed as reduction in ERK phosphorylation at T202 residue at 0.1 uM measured after 2 hrs by Western blot analysis

[6] = tested on: Mast/stem cell growth factor receptor Kit (Homo sapiens), P10721 [UNDEFINED MUTATION]; conditions: GISTT1, 0.1 uM; remark: listed apart in the source
Description: Inhibition of c-KIT 560 to 578 deletion mutant in human GISTT1 cells assessed as reduction in ERK phosphorylation at T204 residue at 0.1 uM measured after 2 hrs by Western blot analysis

[7] = tested on: Mast/stem cell growth factor receptor Kit (Homo sapiens), P10721 [UNDEFINED MUTATION]; conditions: GISTT1, 0.1 uM; remark: listed apart in the source
Description: Inhibition of c-KIT 560 to 578 deletion/T670I mutant in human GISTT1 cells assessed as reduction in ERK phosphorylation at T204 residue at 0.1 uM measured after 2 hrs by Western blot analysis

[8] = tested on: Mast/stem cell growth factor receptor Kit (Homo sapiens), P10721 [UNDEFINED MUTATION]; conditions: GISTT1, 0.1 uM; remark: listed apart in the source
Description: Inhibition of c-KIT 560 to 578 deletion mutant in human GISTT1 cells assessed as reduction in pS6 phosphorylation at S235 residue at 0.1 uM measured after 2 hrs by Western blot analysis

[9] = Antitumor activity against mouse BAF3(transformed) cells harboring c-KIT Y823D mutant implanted in BALB/c nu mouse assessed as tumor weight at 80 mg/kg/day, po administered via gavage for 9 days (reference value: 0.96 g); format: functional
[10] = AUC (0 to t) in Sprague-Dawley rat at 10 mg/kg, po by LC-MS/MS analysis; format: ADME, organism-based; conditions: in vivo
[11] = molecular target: T1, Mast/stem cell growth factor receptor Kit (Homo sapiens, UniProt P10721, 560-578DEL/T670I)
T1 sequence (P10721 whole entry, looked up, stated change not applied): as above

[12] = molecular target: T1, Mast/stem cell growth factor receptor Kit; format: cell-based, GISTT1
[13] = Cmax in mouse at 1 mg/kg, iv by LC-MS/MS analysis; format: ADME, organism-based; design: dose 1 mg/kg, route intravenous; conditions: in vivo
[14] = molecular target: Platelet-derived growth factor receptor beta (Mus musculus) (UniProt P05622); assay: Inhibition of PDGFRB in mouse BAF3(transformed) cells assessed as growth inhibition after 72 hrs by CCK8 assay
Mus musculus [15] = assay: Antitumor activity against mouse BAF3(transformed) cells harboring c-KIT D820G mutant implanted in BALB/c nu mouse assessed as tumor growth inhibition administered via oral gavage for 9 days; format: functional
[16] = AUC (0 to t) in Beagle dog at 5 mg/kg, po by LC-MS/MS analysis; format: ADME, organism-based, Canis lupus familiaris; conditions: in vivo
[17] = Tmax in mouse at 10 mg/kg, po by LC-MS/MS analysis; format: ADME, organism-based; conditions: in vivo
[18] = Half life in Sprague-Dawley rat at 10 mg/kg, po by LC-MS/MS analysis; format: ADME, organism-based; conditions: in vivo
[19] = tested on: Mast/stem cell growth factor receptor Kit (Homo sapiens), P10721 [K642E]
[20] = Tmax in mouse at 1 mg/kg, iv by LC-MS/MS analysis; format: ADME, organism-based; conditions: in vivo
[21] = tested on: Mast/stem cell growth factor receptor Kit (Homo sapiens), P10721 [N822K]; conditions: Mus musculus
Description: Inhibition of c-KIT N822K mutant in mouse BAF3(transformed) cells assessed as growth inhibition after 72 hrs by CCK8 assay

[22] = molecular target: Vascular endothelial growth factor receptor 3 (Mus musculus) (UniProt P35917); assay: Inhibition of FLT4 in mouse BAF3(transformed) cells assessed as growth inhibition after 72 hrs by CCK8 assay
GISTT1 [23] = format: functional, Homo sapiens
[24] = molecular target: T1, Mast/stem cell growth factor receptor Kit; format: cell-based, GISTT1; remark: listed apart in the source
[25] = molecular target: T2, Mast/stem cell growth factor receptor Kit (Homo sapiens, UniProt P10721, 560-578DEL); format: cell-based, GISTT1
T2 sequence (P10721 whole entry, looked up, stated change not applied): as above

[26] = molecular target: T2, Mast/stem cell growth factor receptor Kit; format: cell-based, GISTT1; remark: listed apart in the source
[27] = tested on: Mast/stem cell growth factor receptor Kit (Homo sapiens), P10721 [Y823D]; conditions: Mus musculus
Chain of Mast/stem cell growth factor receptor Kit (Homo sapiens), P10721 [Y823D] (P10721 whole entry Y823D): as the sequence (P10721 whole entry, looked up, stated change not applied) above, with Y823D counted along it
Description: Inhibition of c-KIT Y823D mutant in mouse BAF3(transformed) cells assessed as growth inhibition after 72 hrs by CCK8 assay

[28] = Protein binding in plasma (unknown origin); format: ADME, cell-free; conditions: read-out: PPB
[29] = Half life in mouse at 1 mg/kg, iv by LC-MS/MS analysis; format: ADME, organism-based; conditions: in vivo
[30] = molecular target: T1, Mast/stem cell growth factor receptor Kit; format: cell-based, GISTT1; remark: listed apart in the source
[31] = Half life in Beagle dog at 1 mg/kg, iv by LC-MS/MS analysis; format: ADME, organism-based, Canis lupus familiaris; conditions: in vivo
[32] = Oral bioavailability in Sprague-Dawley rat at 10 mg/kg by LC-MS/MS analysis; format: ADME, organism-based; conditions: in vivo
[33] = tested on: Mast/stem cell growth factor receptor Kit (Homo sapiens), P10721 [V560D]; conditions: Mus musculus
[34] = Cmax in mouse at 10 mg/kg, po by LC-MS/MS analysis; format: ADME, organism-based; design: dose 10 mg/kg, route oral; conditions: in vivo
[35] = molecular target: T1, Mast/stem cell growth factor receptor Kit; format: cell-based
[36] = molecular target: T1, Mast/stem cell growth factor receptor Kit; format: cell-based; remark: listed apart in the source
[37] = tested on: Mast/stem cell growth factor receptor Kit (Homo sapiens), P10721 [V654A]; conditions: Mus musculus
Description: Inhibition of c-KIT V654A mutant in mouse BAF3(transformed) cells assessed as growth inhibition after 72 hrs by CCK8 assay

[38] = Toxicity in BALB/c nu mouse implanted with mouse BAF3(transformed) cells harboring c-KIT T670I mutant assessed as change in body weight at 40 to 100 mg/kg/day, po administered via gavage for 11 days measured daily during compound dosing; format: organism-based; conditions: in vivo, 264 h
[39] = Cmax in Sprague-Dawley rat at 10 mg/kg, po by LC-MS/MS analysis; format: ADME, organism-based; design: dose 10 mg/kg, route oral; conditions: in vivo
[40] = molecular target: RAC-alpha serine/threonine-protein kinase (Homo sapiens) (UniProt P31749); format: cell-based; conditions: GISTT1
[41] = Tmax in Sprague-Dawley rat at 1 mg/kg, iv by LC-MS/MS analysis; format: ADME, organism-based; conditions: in vivo
[42] = tested on: Mast/stem cell growth factor receptor Kit (Homo sapiens), P10721 [UNDEFINED MUTATION]; conditions: GISTT1
Description: Inhibition of c-KIT 560 to 578 deletion/T670I mutant in human GISTT1 cells assessed as growth inhibition after 72 hrs by CCK8 assay

[43] = molecular target: Platelet-derived growth factor receptor alpha (Homo sapiens, UniProt P16234); assay: Binding affinity to wild-type human partial length PDGFRA (V575 to D1002 residues) expressed in mammalian expression system assessed as residual binding level at 1 uM by Kinomescan method relative to control
[44] = molecular target: Proto-oncogene tyrosine-protein kinase receptor Ret (Mus musculus) (UniProt P35546); assay: Inhibition of RET in mouse BAF3(transformed) cells assessed as growth inhibition after 72 hrs by CCK8 assay
Chain of Proto-oncogene tyrosine-protein kinase receptor Ret (Mus musculus) (P35546 whole entry): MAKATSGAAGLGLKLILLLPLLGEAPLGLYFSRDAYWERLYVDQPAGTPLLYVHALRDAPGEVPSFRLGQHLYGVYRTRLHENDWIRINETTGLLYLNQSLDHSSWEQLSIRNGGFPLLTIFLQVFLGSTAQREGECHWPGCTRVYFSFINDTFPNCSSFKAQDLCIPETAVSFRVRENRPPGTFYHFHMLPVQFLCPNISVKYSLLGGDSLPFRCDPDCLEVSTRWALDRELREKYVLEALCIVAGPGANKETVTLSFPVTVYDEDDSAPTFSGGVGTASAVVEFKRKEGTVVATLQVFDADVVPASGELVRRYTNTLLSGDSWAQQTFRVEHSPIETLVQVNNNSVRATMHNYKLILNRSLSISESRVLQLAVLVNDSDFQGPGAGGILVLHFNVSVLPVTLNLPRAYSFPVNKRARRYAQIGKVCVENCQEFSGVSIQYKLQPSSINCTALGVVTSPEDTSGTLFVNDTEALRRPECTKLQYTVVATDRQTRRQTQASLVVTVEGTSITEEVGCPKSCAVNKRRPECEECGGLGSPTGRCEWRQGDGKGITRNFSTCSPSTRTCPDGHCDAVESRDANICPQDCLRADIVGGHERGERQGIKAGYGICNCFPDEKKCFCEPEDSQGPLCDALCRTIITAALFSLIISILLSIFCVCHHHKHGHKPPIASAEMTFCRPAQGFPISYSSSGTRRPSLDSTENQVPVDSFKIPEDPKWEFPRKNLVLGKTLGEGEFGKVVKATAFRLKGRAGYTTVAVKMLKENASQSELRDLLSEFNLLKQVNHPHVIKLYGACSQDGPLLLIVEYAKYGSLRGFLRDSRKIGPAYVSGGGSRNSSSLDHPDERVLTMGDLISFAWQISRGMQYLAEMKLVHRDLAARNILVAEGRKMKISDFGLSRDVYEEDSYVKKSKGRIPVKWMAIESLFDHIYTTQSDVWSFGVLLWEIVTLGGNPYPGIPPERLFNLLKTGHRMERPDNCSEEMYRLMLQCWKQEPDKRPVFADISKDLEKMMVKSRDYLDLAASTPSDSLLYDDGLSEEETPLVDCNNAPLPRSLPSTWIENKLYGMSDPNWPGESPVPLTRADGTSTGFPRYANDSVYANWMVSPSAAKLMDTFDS

[45] = molecular target: T2, Mast/stem cell growth factor receptor Kit; format: cell-based, GISTT1; remark: listed apart in the source
[46] = tested on: Mast/stem cell growth factor receptor Kit (Homo sapiens), P10721 [UNDEFINED MUTATION]; conditions: GISTT1; remark: listed apart in the source
Description: Inhibition of c-KIT 560 to 578 deletion mutant in human GISTT1 cells assessed as growth inhibition after 72 hrs by CCK8 assay

Homo sapiens = organism: Homo sapiens; format: functional, cell-based
GISTT1 [47] = format: functional, cell-based; conditions: Homo sapiens
[48] = molecular target: T1, Mast/stem cell growth factor receptor Kit; remark: listed apart in the source
Mus musculus [49] = format: functional, organism-based; conditions: BALB/c, 80 mg/kg, TDE = time-dependent effect
[50] = molecular target: T1, Mast/stem cell growth factor receptor Kit; remark: listed apart in the source

CCN(CC)CCNC(=O)c1c(C)[nH]c(/C=C2\C(=O)Nc3ccc(F)cc32)c1C [SUNITINIB]
inhibition [1]: Active
inhibition [2]: Active
inhibition [3]: Active
inhibition [4]: Active
inhibition [5]: Active
inhibition [6]: Active
inhibition [7]: Active
inhibition [8]: Active

COc1cc2nccc(Oc3ccc(NC(=O)Cc4ccc(Cl)c(C(F)(F)F)c4)cc3)c2cc1OC
Activity [9]: 0.09 g
AUC(0-t) [10]: 25100 ng·h/mL
EC50 [11]: < 100 nM
EC50 [12]: < 100 nM
Cmax [13]: 520 ng/mL
GI50 [14]: 4 nM
TGI (Mus musculus [15]): Dose-dependent effect
AUC(0-t) [16]: 19100 ng·h/mL
Tmax [17]: 4 h
half-life [18]: 6.41 h
GI50 [19]: 13 nM
Tmax [20]: 1.8 min
GI50 [21]: 26 nM
GI50 [22]: 522 nM
Activity (GISTT1 [23]): 0.14 g
EC50 [24]: < 100 nM
EC50 [25]: < 100 nM
EC50 [26]: < 100 nM
GI50 [27]: 35 nM
fraction unbound [28]: < 0.1
half-life [29]: 5.4 h
EC50 [30]: < 100 nM
half-life [31]: 20.6 h
bioavailability [32]: 50%
GI50 [33]: 4 nM
Cmax [34]: 1390 ng/mL
EC50 [35]: < 100 nM
EC50 [36]: < 100 nM
GI50 [37]: 320 nM
Activity [38]: Non-Toxic
Cmax [39]: 1640 ng/mL
inhibition [40]: Active
Tmax [41]: 0 h
GI50 [42]: 6 nM
Activity [43]: < 1%
GI50 [44]: 280 nM
EC50 [45]: < 100 nM
GI50 [46]: 6 nM
Activity (Homo sapiens): Dose-dependent effect
Activity (GISTT1 [47]): Dose-dependent effect
EC50 [48]: < 100 nM
inhibition (Mus musculus [49]): Tde
EC50 [50]: < 100 nM
